# According to US6399583B1, “Hybrid anthracyclines from genetically engineered streptomyces galilaeus strains, process for production and uses thereof” (Galilaeus Oy, priority 1998, dated 2002):
# pEC50: −log10 of the molar value.
# Columns and labels:
# [1] = test system: MES-SA/D×5 uterine sarcoma cells (doxorubicin-resistant, MDR); settings: relative to MES-SA; Harker and Sikic, 1985; cited from earlier work
# [2] = test system: SK-N-MC; assay: Cytotoxicity assay, ATP detection, SK-N-MC; format: cell-based; settings: SK-N-MC cells in vitro; read-out: ED50 SK-N-MC
# [3] = test system: Lewis lung carcinoma (LL/2); assay: Cytotoxicity assay, ATP detection, LL/2; format: cell-based, mouse; settings: Mus musculus; LL/2 cells in vitro; read-out: ED50 LL/2
# Procedure: (§1) The cytotoxicity tests were performed in 96-well microtiter plates (sterile white plates with clear bottom, Corning Costar Corporation, Cambridge, Mass., USA). The anthracyclines were pipetted into the plates in 10 μl of ethanol, pure ethanol was used for control plates. Daunorubicin and aclarubicin were used as positive controls. When the ethanol had evaporated, the cells were seeded into the plates in 100 μl of appropriate medium. The number of cells seeded per well was 2500 with MES-SA, 3000 with MES-SA/D×5, 3000 with LL/2, 2000 with B16-F0 and B16-F1, 2000 with KLN-205 and 8000 with MLTC-1. The ATP content of the cells was measured after incubating the cells for three days at 37° C. with 5% CO2.
# (§2) The growth medium was removed by turning the plates over, and 200 μl of ATP extraction reagent, Somalyze, were added to the wells. The plates were then incubated for 30 minutes at room temperature. The ATP measurement was performed with Luminoskan luminometer (Labsystems Oy, Helsinki, Finland) at 22° C. 20 μl of ATP monitoring reagent containing luciferin and luciferase was dispensed, and an integral measurement of 10 s with 2 s lag time was performed for each well. All reagents used were supplied by Bio-Orbit Oy, Turku, Finland.
# (§3) The direct luminometer output (in relative light units, RLUS) was used to calculate the cytotoxic effect. This light signal is directly proportional to the amount of […] in a wide range (determined with Bio-Orbit ATP standard, data not shown). On the other hand, the amount of ATP is directly proportional to the amount of living cells (Kangas et al., 1984). The results are expressed as percentages of the control value of untreated cells. An IC50 value (the drug concentration resulting to an ATP signal of 50% of the untreated control signal) was graphically estimated from the % of control vs. drug concentration plot.
# (§4) H075-4a was also tested with several mouse cell lines in vitro (all were purchased from ATCC, Rockville, Md., USA): Lewis lung carcinoma (LL/2) (CRL-1642), B16-F0 melanoma (CRL-6322), B16-F1 melanoma (CRL-6323), KLN-205 lung squamous cell carcinoma (CRL-1453) and MLTC-1 leydig cell tumor (CRL-2065) using daunomycin, aclarubicin and H075-1a (MA 144U1) as references.
# (§5) All cells grew as monolayers and were cultured at 37° C. with 5% CO2 according to ATCC standard instructions for each cell line: LL/2 in Dulbecco's modified Eagle's medium with 4.5 g/l glucose and 10% FCS, B16-F0 and B16-F1 in MEM (Eagle) in Earle's BSS with non-essential amino acids and 10% FCS, KLN-205 in MEM (Eagle) in Earle's BSS with non-essential amino acids and 10% FCS, MLTC-1 in RPMI 1640 with 25 mM HEPES and 10% FBS. All media were purchased from Gibco BRL, the serum was Gibco BRL Foetal Bovine Serum. […]
# [4] = test system: MLTC-1 leydig cell tumor; assay: Cytotoxicity assay, ATP detection, MLTC-1; format: cell-based, mouse; settings: Mus musculus, Leydig; MLTC-1 cells in vitro; read-out: ED50 MLTC-1
# Procedure: as §1, §2, §3, §4, §5
# [5] = test system: B16-F1 melanoma; assay: Cytotoxicity assay, ATP detection, B16-F1; format: cell-based, mouse; settings: Mus musculus; B16-F1 cells in vitro; read-out: ED50 B16-F1
# Procedure: as §1, §2, §3, §4, §5
# [6] = test system: MES-SA/D×5 uterine sarcoma cells (doxorubicin-resistant, MDR); assay: Cytotoxicity assay, luminescence ATP detection, MES-SA/D×5; format: cell-based, human; settings: Homo sapiens, 72 h; MES-SA/D×5 cells, three days incubation, ATP content; highest concentration 10^-5 M; read-out: ED50 (nM) MES-SA/D × 5
# Procedure: (§6) The cytotoxicities of the new anthracyclines were tested in vitro with two cell lines: human uterine sarcomas MES-SA (CRL-1976; American Type Culture Collection (ATCC), Rockville, Md., USA) and MES-SA/D×5 (CRL-1977; ATCC, Rockville, Md., USA). MES-SA/D×5 has been developed by growing MES-SA cells in increasing concentrations of doxorubicin (Harker and Sikic, 1985).
# (§7) Monolayer cultures were grown in McCoy's 5A medium with L-glutamine (Gibco BRL) supplemented with 10% FBS (Foetal Bovine Serum, Gibco BRL). No antibiotics were added. As the resistance is stable for at least 20 passages, the MES-SA/D×5 cells were grown without anthracycline selection (Harker and Sikic, 1985). Cells were maintained at 37° C. with 5% CO2 and subcultured every 3-5 days.
# as §1, §2, §3
# [7] = test system: MES-SA human uterine sarcoma cells; assay: Cytotoxicity assay, luminescence ATP detection, MES-SA; format: cell-based; settings: Homo sapiens, 72 h, three days incubation, ATP content, highest concentration 10^-5 M, read-out: ED50 (nM) MES-SA
# Procedure: as §6, §7, §1, §2, §3
# [8] = test system: KLN-205 lung squamous cell carcinoma; assay: Cytotoxicity assay, ATP detection, KLN-205; format: cell-based, mouse; settings: Mus musculus; KLN-205 cells in vitro; read-out: ED50 KLN-205
# Procedure: as §1, §2, §3, §4, §5
# [9] = test system: B16-F0 melanoma; assay: Cytotoxicity assay, ATP detection, B16-F0; format: cell-based, mouse; settings: Mus musculus, B16F0; B16-F0 cells in vitro; read-out: ED50 B16-F0
# Procedure: as §1, §2, §3, §4, §5
# [10] = test system: L1210 mouse lymphocytic leukemia cells; assay: Flow cytometry (mode of action), cell cycle phases; format: cell-based; settings: for G1 (%) / G2 (%) / S + M (%) / Cells (1000/ml): L1210 cells, 24 h incubation; for G1 (%): percentage of cells in phase G1; for G2 (%): percentage of cells in phase G2; for S + M (%): percentage of cells in phases S + M; for Cells (1000/ml): starting cell number 46000 cells/ml
# Procedure: L1210 mouse lymphocytic leukemia cells growing in suspension culture were maintained at exponential growth in Dulbecco's modified Eagle's medium with 4.5 g/l glucose and 10% FBS, at 37° C. with 5% CO2. The experiments were started by adding the ethanol-dissolved anthracyclines, in amounts yielding to the appropriate final concentrations, to 25 cm^2 cell culture flasks. After the ethanol had evaporated, 5 ml of an approximately 50 000 cells per ml suspension was added to the flasks. Flow cytometric analysis was made of the original cell suspension and after one, two and three days incubation with or without the drugs.
# Cells were prepared for flow cytometric DNA analysis according to the method of Vindelov et al. (1985). The analysis was performed with an Epics XL flow cytometer (Coulter Corporation, Miami, Fla.). Samples were illuminated with a […] air-cooled argon ion laser (488 nm) and the fluorescence of propidium iodide was detected through 620-nm band pass filter. The number of cells in each sample was separately counted by adding an internal calibrator (50 μl of a solution containing 1×10^6 Fluoresbrite beads/ml) to 50 μl of cell suspension.
# Based on the flow cytometric studies, the cell cycle phases for the cells studied could be detected. Phase G1 is the stage for RNA and protein synthesis, but not for replication. Transition from phase G1 to phase S means the initiation of replication, and the phase will last until all of the DNA has been replicated. The period from phase S up to mitosis (M) is phase G2.
Structure (SMILES),resistance of MES-SA/D×5 variant to doxorubicin [1],pEC50 [2],pEC50 [3],pEC50 [4],pEC50 [5],EC50 [6],EC50 [7],pEC50 [8],pEC50 [9],G1 (%) ([10]; concentration 1 × 10^−8M),G2 (%) ([10]; concentration 1 × 10^−8M),S + M (%) ([10]; concentration 1 × 10^−8M),Cells (1000/ml) ([10]; concentration 1 × 10^−8M),G1 (%) ([10]; concentration 3.3 × 10^−8M),G2 (%) ([10]; concentration 3.3 × 10^−8M),S + M (%) ([10]; concentration 3.3 × 10^−8M),Cells (1000/ml) ([10]; concentration 3.3 × 10^−8M),cell cycle phase in which cells are arrested ([10]; flow cytometric DNA analysis)
COc1cccc2c1C(=O)c1c(O)c3c(c(O)c1C2=O)C[C@@](O)(C(=O)CO)C[C@@H]3O[C@H]1C[C@H](N)[C@H](O)[C@H](C)O1 [doxorubicin],100 fold,–,–,–,–,–,–,–,–,–,–,–,–,–,–,–,–,–
CC[C@@]1(O)C[C@H](O[C@H]2C[C@H](N(C)C)[C@H](O[C@H]3C[C@H](O)[C@H](O[C@H]4CCC(=O)[C@H](C)O4)[C@H](C)O3)[C@H](C)O2)c2c(cc3c(c2O)C(=O)c2c(O)cccc2C3=O)[C@H]1C(=O)OC [Aclarubicin],–,8.05,8.30,7.15,8.40,12 nM,2 nM,7.92,8.52,43%,14%,43%,101 1000/ml,47%,29%,24%,78 1000/ml,phase G1
